We go through one compound from paper PMC2706308 (Biochimica et biophysica acta, 2009).

In the assay the target is 20S proteasome (rat liver) (Rattus norvegicus, UniProt P18421+P28075). As to the kind of experiment: inhibition of suc-LLVY-AMC hydrolysis. Type of assay: biochemical. The conditions noted are these: read-out: % inhibition at 10 uM.

Structures are written as SMILES. Where a SMILES comes first, the peptide text is derived from it. The star is where a group is joined. Cbz = O=C(OCc1ccccc1)*

One may read the inhibition as the percentage by which the read-out fell short of the control. Take `CC(C)C[C@@H](C=O)NC(=O)[C@H](CC(C)C)NC(=O)[C@H](CC(C)C)NC(=O)OCc1ccccc1` [MG-132] (Cbz-Leu-Leu-Leu-aldehyde): the inhibition at 10 µM came to 90%.
